Test results published in patent US7915383B2, “Method of separating a peptidoglycan recognition protein from a hemolymph Tenebrio molitor larvae” (Yuhan Corporation, priority 2006, dated 2011).

Legend:
[1] = tested on: natural PGN-dependent PO activity in the hemolymph of Tenebrio molitor larvae; assay: Inhibition of natural PGN-dependent PO activity by synthetic PGN; assay type: biochemical
Protocol: (§1) PO activity was assayed according to a Pye-spectrophotometric method using a substrate solution (4-methylcatechol, and 4-hydroxyproline ethylester in HCl). 4-methylcatechol was oxidized to quinone by PO, which was then converted through a non-enzymatic reaction with 4-hydroxyproline ethylester in HCl to 4-(4′-hydroxyl-2′-carbethoxy-1′-pyrroline)-5-methyl-o-benzoquinone, a stable compound having maximum absorbance at 520 nm (see FIG. 2)
Each of 10 μl (1 μg) of a 10% β-1,3-glucan solution, 10 μl. (1 μg) of a 10% S. aureus PGN solution, 10 μl (10 ng) of a 10% M. luteus PGN solution, and 10 μl (1 μg) of a 10% synthetic PGN (for each of the compounds of Formulae 1-4) solution was incubated together with 30 μl (protein 350 μg) of the hemolymph of Tenebrio molitor larvae at 30° C. for 5 minutes. Then, 4 μl of 4-methylcatechol (250 mM), 16 μl of 4-hydroxyproline ethylester (62.5 mM) in HCl, and 5 μl of 1M CaCl2 (10 mM) were added thereto. […] The reaction mixture was incubated at 30° C. and the absorbance of the reaction solution was measured at 520 nm (see FIG. 3).
Meanwhile, PO activity was also measured in the presence of 1 μg of S. aureus PGN and 1 μg of each of the synthetic PGNs.
Furthermore, PO activity was also measured in the presence of 1 μg of S. aureus PGN with an incremental addition of the synthetic PGN of Formula 3 (0.2, 0.4, 0.8, and 1.5 μg).

[2] = tested on: amidase activity; assay: Amidase activity assay with Boc-Phe-Ser-Arg-MCA substrate; assay type: biochemical, Tenebrio molitor; settings: S. aureus PGN 1 μg plus synthetic PGN, 40 μM Boc-Phe-Ser-Arg-MCA, 30° C., fluorescence 380/460 nm; FIG. 6
Protocol: 10 μl of a 10% gram-positive S. aureus PGN (final concentration: 1 μg) solution and 10 μl of a 10% synthetic PGN (the compound 35 of Formula 3) solution were incubated in the presence of 40 μM trypsin MCA (t-butyloxycarbonyl-benzyl-L-phenylalanyl-L-seryl-L-arginine-4-methylcoumaryl-7-amide; Boc-Phe-Ser-Arg-MCA) as a substrate at 30° C., and fluorescence was measured at 380 nm (excitation wavelength) and 460 nm (emission wavelength) using a fluorescence spectrophotometer (model UV-160A, Shimadzu).

[3] = tested on: PGN-dependent pro-PO cascade in the hemolymph of Tenebrio molitor larvae; assay: PO activity assay (Pye-spectrophotometric method): effect of natural or synthetic PGN on PO activation; assay type: biochemical; settings: 30 μl hemolymph (protein 350 μg), 1 μg test substance (10 ng M. luteus PGN), 30° C.; FIG. 3
Protocol: as §1
Each of 10 μl (1 μg) of a 10% β-1,3-glucan solution, 10 μl. (1 μg) of a 10% S. aureus PGN solution, 10 μl (10 ng) of a 10% M. luteus PGN solution, and 10 μl (1 μg) of a 10% synthetic PGN (for each of the compounds of Formulae 1-4) solution was incubated together with 30 μl (protein 350 μg) of the hemolymph of Tenebrio molitor larvae at 30° C. for 5 minutes. Then, 4 μl of 4-methylcatechol (250 mM), 16 μl of 4-hydroxyproline ethylester (62.5 mM) in HCl, and 5 μl of 1M CaCl2 (10 mM) were added thereto. Then, 20 mM Tris-HCl (pH 8.0) was added to a final volume of 500 μl. The reaction mixture was incubated at 30° C. and the absorbance of the reaction solution was measured at 520 nm (see FIG. 3).

Substance	inhibition of PO activity with incremental addition of synthetic PGN ([1]; 1 μg of S. aureus PGN plus 0.2, 0.4, 0.8 and 1.5 μg synthetic PGN, FIG. 5)	inhibition of PGN-dependent PO activity ([1]; in the presence of 1 μg of S. aureus PGN and 1 μg of each synthetic PGN, FIG. 4)	inhibition of amidase activity [2]	activation of the PGN-dependent pro-PO cascade (PO activity, absorbance at 520 nm) [3]
Tetrasaccharide Tetrapeptide [compound 35]	inhibited in a synthetic PGN concentration-dependent manner	strongest competitive inhibitor	same inhibition pattern as the PO activity	–
β-1,3-glucan	–	–	–	activated
